Data from patent US20260130395A1, “Water Dispersible Botanical Compositions” (Aquila Black Limited, priority 2021, published 2026).

Experiment: Stability of cannabinoid compounds and Vitamin E components in Beverage 2 (AB Red) by LCMSMS
Type: physicochemical
Experimental: The stability of the plant-derived cannabinoid compounds and Vitamin E components of the beverage stored 8° C. and at room temperature (21-25° C.) were monitored, over a period of 570 days via Liquid Chromatography-tandem Mass Spectrometry [LCMSMS, AGilent 6590, C18, 3×50 mm, 2.7 m (Agilent InfinityLab Poroshell 120 EC-C18), Electrospray Ionization detector]. The LCMSMS was calibrated for 0-50 ng/ml cannabinoids with the same resin material used in the preparation of the concentrates. At each time period, 100 ml of beverage was diluted with 10 ml of methanol and injected into the LCMSMS for analysis.

CCCc1cc(O)c2c(c1)OC(C)(C)[C@@H]1CCC(C)=C[C@@H]21 [THCV, delta-9-tetrahydrocannabivarin]
Stability of Plant-Derived Cannabinoid Compounds in AB Red (stored at 8° C., 29 days): 3.22 µg/mL | Stability of Plant-Derived Cannabinoid Compounds in AB Red (stored at 8° C., 30 days): 3.20 µg/mL | Stability of Plant-Derived Cannabinoid Compounds in AB Red (stored at 8° C., 60 days): 3.11 µg/mL | Stability of Plant-Derived Cannabinoid Compounds in AB Red (stored at 8° C., 90 days): 3.10 µg/mL | Stability of Plant-Derived Cannabinoid Compounds in AB Red (stored at 8° C., 120 days): 3.10 µg/mL | Stability of Plant-Derived Cannabinoid Compounds in AB Red (stored at 8° C., 150 days): 3.15 µg/mL | Stability of Plant-Derived Cannabinoid Compounds in AB Red (stored at 8° C., 180 days): 3.10 µg/mL | Stability of Plant-Derived Cannabinoid Compounds in AB Red (stored at 8° C., 210 days): 3.15 µg/mL | Stability of Plant-Derived Cannabinoid Compounds in AB Red (stored at 8° C., 240 days): 3.08 µg/mL | Stability of Plant-Derived Cannabinoid Compounds in AB Red (stored at 8° C., 270 days): 3.15 µg/mL | Stability of Plant-Derived Cannabinoid Compounds in AB Red (stored at 8° C., 300 days): 3.15 µg/mL | Stability of Plant-Derived Cannabinoid Compounds in AB Red (stored at 8° C., 330 days): 3.15 µg/mL | Stability of Plant-Derived Cannabinoid Compounds in AB Red (stored at 8° C., 360 days): 3.08 µg/mL | Stability of Plant-Derived Cannabinoid Compounds in AB Red (stored at 8° C., 390 days): 3.08 µg/mL | Stability of Plant-Derived Cannabinoid Compounds in AB Red (stored at 8° C., 420 days): 3.13 µg/mL | Stability of Plant-Derived Cannabinoid Compounds in AB Red (stored at 8° C., 450 days): 3.08 µg/mL | Stability of Plant-Derived Cannabinoid Compounds in AB Red (stored at 8° C., 480 days): 3.05 µg/mL | Stability of Plant-Derived Cannabinoid Compounds in AB Red (stored at 8° C., 510 days): 2.95 µg/mL | Stability of Plant-Derived Cannabinoid Compounds in AB Red (stored at 8° C., 540 days): 2.99 µg/mL | Stability of Plant-Derived Cannabinoid Compounds in AB Red (stored at 8° C., 570 days): 2.95 µg/mL | Stability of Plant-Derived Cannabinoid Compounds in AB Red (stored at 21-25° C., 0 days): 3.22 µg/mL | Stability of Plant-Derived Cannabinoid Compounds in AB Red (stored at 21-25° C., 1 days): 3.13 µg/mL | Stability of Plant-Derived Cannabinoid Compounds in AB Red (stored at 21-25° C., 2 days): 3.20 µg/mL | Stability of Plant-Derived Cannabinoid Compounds in AB Red (stored at 21-25° C., 3 days): 3.25 µg/mL | Stability of Plant-Derived Cannabinoid Compounds in AB Red (stored at 21-25° C., 5 days): 3.25 µg/mL | Stability of Plant-Derived Cannabinoid Compounds in AB Red (stored at 21-25° C., 8 days): 3.19 µg/mL | Stability of Plant-Derived Cannabinoid Compounds in AB Red (stored at 21-25° C., 9 days): 3.17 µg/mL | Stability of Plant-Derived Cannabinoid Compounds in AB Red (stored at 21-25° C., 10 days): 3.09 µg/mL | Stability of Plant-Derived Cannabinoid Compounds in AB Red (stored at 21-25° C., 11 days): 3.24 µg/mL | Stability of Plant-Derived Cannabinoid Compounds in AB Red (stored at 21-25° C., 12 days): 3.24 µg/mL | Stability of Plant-Derived Cannabinoid Compounds in AB Red (stored at 21-25° C., 15 days): 3.20 µg/mL | Stability of Plant-Derived Cannabinoid Compounds in AB Red (stored at 21-25° C., 16 days): 3.20 µg/mL | Stability of Plant-Derived Cannabinoid Compounds in AB Red (stored at 21-25° C., 17 days): 3.11 µg/mL | Stability of Plant-Derived Cannabinoid Compounds in AB Red (stored at 21-25° C., 18 days): 3.19 µg/mL | Stability of Plant-Derived Cannabinoid Compounds in AB Red (stored at 21-25° C., 19 days): 3.19 µg/mL | Stability of Plant-Derived Cannabinoid Compounds in AB Red (stored at 21-25° C., 22 days): 3.18 µg/mL | Stability of Plant-Derived Cannabinoid Compounds in AB Red (stored at 21-25° C., 23 days): 3.23 µg/mL | Stability of Plant-Derived Cannabinoid Compounds in AB Red (stored at 21-25° C., 24 days): 3.25 µg/mL | Stability of Plant-Derived Cannabinoid Compounds in AB Red (stored at 21-25° C., 25 days): 3.24 µg/mL | Stability of Plant-Derived Cannabinoid Compounds in AB Red (stored at 21-25° C., 26 days): 3.11 µg/mL | Stability of Plant-Derived Cannabinoid Compounds in AB Red (stored at 21-25° C., 29 days): 3.15 µg/mL | Stability of Plant-Derived Cannabinoid Compounds in AB Red (stored at 21-25° C., 30 days): 3.15 µg/mL | Stability of Plant-Derived Cannabinoid Compounds in AB Red (stored at 21-25° C., 60 days): 3.18 µg/mL | Stability of Plant-Derived Cannabinoid Compounds in AB Red (stored at 21-25° C., 90 days): 3.05 µg/mL | Stability of Plant-Derived Cannabinoid Compounds in AB Red (stored at 21-25° C., 120 days): 3.09 µg/mL | Stability of Plant-Derived Cannabinoid Compounds in AB Red (stored at 21-25° C., 150 days): 3.17 µg/mL | Stability of Plant-Derived Cannabinoid Compounds in AB Red (stored at 21-25° C., 180 days): 3.10 µg/mL | Stability of Plant-Derived Cannabinoid Compounds in AB Red (stored at 21-25° C., 210 days): 3.03 µg/mL | Stability of Plant-Derived Cannabinoid Compounds in AB Red (stored at 21-25° C., 240 days): 3.18 µg/mL | Stability of Plant-Derived Cannabinoid Compounds in AB Red (stored at 21-25° C., 270 days): 3.04 µg/mL | Stability of Plant-Derived Cannabinoid Compounds in AB Red (stored at 21-25° C., 300 days): 3.14 µg/mL | Stability of Plant-Derived Cannabinoid Compounds in AB Red (stored at 21-25° C., 330 days): 3.19 µg/mL | Stability of Plant-Derived Cannabinoid Compounds in AB Red (stored at 21-25° C., 360 days): 3.05 µg/mL | Stability of Plant-Derived Cannabinoid Compounds in AB Red (stored at 21-25° C., 390 days): 3.04 µg/mL | Stability of Plant-Derived Cannabinoid Compounds in AB Red (stored at 21-25° C., 420 days): 3.10 µg/mL | Stability of Plant-Derived Cannabinoid Compounds in AB Red (stored at 21-25° C., 450 days): 3.14 µg/mL | Stability of Plant-Derived Cannabinoid Compounds in AB Red (stored at 21-25° C., 480 days): 3.04 µg/mL | Stability of Plant-Derived Cannabinoid Compounds in AB Red (stored at 21-25° C., 510 days): 3.01 µg/mL | Stability of Plant-Derived Cannabinoid Compounds in AB Red (stored at 21-25° C., 540 days): 2.95 µg/mL | Stability of Plant-Derived Cannabinoid Compounds in AB Red (stored at 21-25° C., 570 days): 2.98 µg/mL
